Test [1] deals with human lung cancer cell line H1299. The test is described as follows: Caspase cascade activation (DEVD-R110 fluorogenic substrate) in H1299 cells. The settings on record: read-out: Caspase Activation Potency EC50 (nM) (24 h) H1299. It is filed as cell-based. The method, then:
(§1) Human breast cancer cell line T-47D, human lung cancer cell line H1299 and human hepatocellular carcinoma cell line SNU398 were grown according to media component mixtures designated by American Type Culture Collection+10% FCS (Invitrogen Corporation), in a 5% CO2-95% humidity incubator at 37° C. T-47D and H1299 cells were maintained at a cell density between 50 and 80% confluency at a cell density of 0.1 to 0.6×10^6 cells/mL. Cells were harvested at 600×g and resuspended at 0.65×10^6 cells/mL into appropriate media+10% FCS. An aliquot of 22.5 μL of cells was added to a well of a 384-well microtiter plate containing 2.5 μL of a 10% DMSO in RPMI-1640 media solution containing 0.16 to 100 μM of N-(4-methoxyphenyl)-N, 2-dimethylthieno[3,2-d]pyrimidin-4-amine or other test compound (0.016 to 10 μM final). An aliquot of 22.5 μL of cells was added to a well of a 384-well microtiter plate containing 2.5 μL of a 10 % DMSO in RPMI-1640 media solution without test compound as the control sample. The samples were mixed by agitation and then incubated at 37° C. for 24 h or 48 h in a 5% CO2-95% humidity incubator. After incubation, the samples were removed from the incubator and 25 μL of a solution containing 14 μM of N-(Ac-DEVD)-N′-ethoxycarbonyl-R110 (SEQ ID No.:1) fluorogenic substrate (Cytovia, Inc.; WO99/18856), 20% sucrose (Sigma), 20 mM DTT (Sigma), 200 mM NaCI (Sigma), 40 mM Na PIPES buffer pH 7.2 (Sigma), and 500 μg/mL lysolecithin (Calbiochem) was added. The samples were mixed by agitation and incubated at room temperature. Using a fluorescent plate reader (Model SPECTRAfluor Plus, Tecan), an initial reading (T=0) was made approximately 1-2 min after addition of the substrate solution, employing excitation at 485 nm and emission at 530 nm, to determine the background fluorescence of the control sample. After the 3 h incubation, the samples were read for fluorescence as above (T=3 h).
(§2) The Relative Fluorescence Unit values (RFU) were used to calculate the sample readings as follows: RFU(T=3h)-Control RFU(T=0)=Net RFU(T=3h)
(§3) The activity of caspase cascade activation was determined by the ratio of the net RFU value for N-(4-methoxyphenyl)-N,2-dimethylthieno[3,2-d]pyrimidin-4-amine or other test compound to that of control samples. The EC50 (nM) was determined by a sigmoidal dose-response calculation (Prism 3.0, GraphPad Software Inc.).

The test system of test [2] is human breast cancer cell line T-47D. The test is described as follows: Caspase cascade activation (DEVD-R110 fluorogenic substrate) in T-47D cells. Particulars: 24 h, read-out: Caspase Activation Potency EC50 (nM) (24 h) T-47D. In kind it is cell-based. The method, then:
as §1, §2, §3

Usually EC50 stands for the concentration that produces a half-maximal response.

Where a name gives a salt, the structure may show the parent alone. Read-outs that look alike come from different tables or passages of the source. A value given as a limit tells only on which side of the number the result lay.

Regarding `COc1ccc(N(C)c2nc(C)nc3c(C)csc23)cc1` [Example 3, N-(4-Methoxyphenyl)-N,2,7-trimethylthieno[3,2-d]pyrimidin-4-amine], the EC50 is 281 nM in test [1] (Homo sapiens, NCI-H1299, 24 h) and 233 nM in test [2] (Homo sapiens, T47D).

Turning to `COc1ccc(N(C)c2ncnc3cc(I)sc23)cc1` [Example 7, 6-Iodo-N-(4-methoxyphenyl)-N-methylthieno[3,2-d]pyrimidin-4-amine], the EC50 in test [1] (Homo sapiens, NCI-H1299, 24 h) is above 10000 nM; in test [2] (Homo sapiens, T47D) it was above 10000 nM.

With `COc1ccc(N(C)c2ncnc3cc(-c4cccnc4)sc23)cc1` [Example 8, N-(4-Methoxyphenyl)-N-methyl-6-(pyridin-3-yl)thieno[3,2-d]pyrimidin-4-amine], the EC50 is above 10000 nM in test [1] (Homo sapiens, NCI-H1299, 24 h) and above 10000 nM in test [2] (Homo sapiens, T47D).

As to `COc1ccc(N(C)c2ncnc3c(C)csc23)cc1` [Example 10, N-(4-Methoxyphenyl)-N,7-dimethylthieno[3,2-d]pyrimidin-4-amine], the EC50 in test [1] (Homo sapiens, NCI-H1299, 24 h) is 525 nM; in test [2] (Homo sapiens, T47D), 518 nM.

Consider `COc1ccc(Nc2ncnc3scc(C)c23)cc1` [Example 11, N-(4-Methoxyphenyl)-5-methylthieno[2,3-d]pyrimidin-4-amine], for which the EC50 is above 10000 nM in test [1] (Homo sapiens, NCI-H1299, 24 h) and above 10000 nM in test [2] (Homo sapiens, T47D).

Take `COc1ccc(Nc2nc(C)nc3scc(C)c23)cc1` [Example 13, N-(4-Methoxyphenyl)-2,5-dimethylthieno[2,3-d]pyrimidin-4-amine hydrochloride]: the EC50 in test [1] (Homo sapiens, NCI-H1299, 24 h) is above 10000 nM; in test [2] (Homo sapiens, T47D), above 10000 nM.

As for `COc1ccc(Nc2ncnc3ccsc23)cc1` [Example 14, N-(4-Methoxyphenyl)-thieno[3,2-d]pyrimidin-4-amine hydrochloride], the EC50 in test [1] (Homo sapiens, NCI-H1299, 24 h) is above 10000 nM; in test [2] (Homo sapiens, T47D), above 10000 nM.

Consider `COc1ccc(OC)c(N(C)c2nc(C)nc3ccsc23)c1` [Example 16, N-(2,5-Dimethoxyphenyl)-N,2-dimethylthieno[3,2-d]pyrimidin-4-amine], for which the EC50 in test [1] (Homo sapiens, NCI-H1299, 24 h) was above 10000 nM; in test [2] (Homo sapiens, T47D) it was above 10000 nM.

On to `Cc1cc(N(C)c2ncnc3ccsc23)no1` [Example 17, N-Methyl-N-(5-methylisoxazol-3-yl)thieno[3,2-d]pyrimidin-4-amine], for which the half-maximal effective concentration (EC50) is above 10000 nM in test [1] (Homo sapiens, NCI-H1299, 24 h) and above 10000 nM in test [2] (Homo sapiens, T47D).

As to `COc1ccc(N(C)c2ncnc3sc(C)cc23)cc1` [Example 18, N-(4-Methoxy-phenyl)-N,6-dimethylthieno[2,3-d]pyrimidin-4-amine hydrochloride], the EC50 was 184 nM in test [1] (Homo sapiens, NCI-H1299, 24 h) and 125 nM in test [2] (Homo sapiens, T47D).

Consider `COc1ccc(N(C)c2nc(-c3ccccc3)nc3ccsc23)cc1` [Example 19, N-(4-Methoxyphenyl)-N-methyl-2-phenylthieno[3,2-d]pyri idin-4-amine hydrochloride], for which the half-maximal effective concentration (EC50) was determined as 615 nM in test [1] (H1299, 24 h) and 337 nM in test [2].

On to `COc1ccc(OC)c(N(C)c2ncnc3ccsc23)c1` [Example 21, N-(2,5 -Dimethoxyphenyl)-N-methylthieno[3,2-d]pyrimidin-4-amin], for which the EC50 in test [1] (Homo sapiens, NCI-H1299, 24 h) amounted to 4940 nM; in test [2] (Homo sapiens, T47D), 2500 nM.

For `COC(=O)c1ccc(N(C)c2ncnc3ccsc23)cc1` [Example 22, N-(4-Methoxycarbonylphenyl)-N-methylthieno[3,2-d]pyrimidin-4-amine hydrochloride], the EC50 in test [1] (Homo sapiens, NCI-H1299, 24 h) is 327 nM; in test [2] (Homo sapiens, T47D) it was 185 nM.

Turning to `COc1ccccc1N(C)c1ncnc2ccsc12` [Example 25, N-(2-Methoxyphenyl)-N-methylthieno[3,2-d]pyrimidin-4-amine], the EC50 in test [1] (Homo sapiens, NCI-H1299, 24 h) was above 10000 nM; in test [2] (Homo sapiens, T47D), above 10000 nM.

On to `COc1ccc(N(C)c2ncnc3ccsc23)cc1OC` [Example 26, N-(3,4-Dimethoxyphenyl)-N-methylthieno[3,2-d]pyrimidin-4-amine], for which the EC50 amounted to 2620 nM in test [1] (Homo sapiens, NCI-H1299, 24 h) and 1630 nM in test [2] (Homo sapiens, T47D).

In the case of `COc1cccc(N(C)c2ncnc3ccsc23)c1` [Example 27, N-(3-methoxyphenyl)-N-methylthieno[3,2-d]pyrimidin-4-amine], the EC50 in test [1] (Homo sapiens, NCI-H1299, 24 h) was above 10000 nM; in test [2] (Homo sapiens, T47D), above 10000 nM.

For the origin of these results see patent publication US20070213305A1, “N-alkyl-N-aryl-thienopyrimidin-4-amines and analogs as activators of caspases and inducers of apoptosis and the use thereof” (Cytovia, Inc., priority 2005, published 2007).
